Laboratory results taken from patent publication US20250118786A1, “LONG-LIVED REDOX-ACTIVE MOLECULES WITH LOW REDOX POTENTIAL” (President and Fellows of Harvard College, priority 2021, published 2025).
Where two headings read alike, the source gives them in different places.

Assays:
[1] = Solubility in water and salt solutions; type: physicochemical
[2] = Storage in 1 M NaCl at 65° C. for 8 days, 1H NMR; type: physicochemical
Text: For comparison, the long-term cycling of the 0.1 M 2,6-N-TSAQ/ferrocyanide cell was operated at neutral condition (1 M sodium chloride) but, otherwise, the same conditions. The initial volumetric capacity was 4.774 Ah L^−1, which is similar to that at pH 14. After 2.84 days cycling, the discharge capacity dropped to 4.412 Ah/L, corresponding to a capacity fade rate of 2.6%/day, which is around 2 orders magnitude higher than that at pH 14. And the coulombic efficiency is around 99.8% over the whole cycling process, which is slightly lower than that at pH 14. […] To investigate the origin of instability of 2,6-N-TSAQ at neutral condition, both oxidized and reduced forms of 2,6-N-TSAQ were stored in 1 M NaCl at 65° C. for 8 days.

[3] = Cyclic voltammetry (three-electrode system); type: physicochemical
Protocol: A glassy carbon (BASi, 3 mm diameter) working electrode, an Ag/AgCl reference electrode (BASi, 3 M NaCl solution), and a graphite counter electrode were used in the three-electrode system for all CV tests. The scan rates for CV tests were 10, 20, 50, 100, and 200 mV s^−1. The diffusion coefficient D was calculated based on the Randles-Sevcik equation: Ip=269000×n^1.5 AD^0.5v^0.5C, where Ip is the peak current in amps, n is the number of electrons involved (n=2 for 2,6-N-TSAQ) in the redox reaction, A is the active surface area (0.0707 cm^2), D is the diffusion coefficient in cm^2/s, v is the scan rate in V/s, and C is the concentration of redox species in mol/cm^3.
The reduction potential of 2,6-N-TSAQ is-0.62 V vs. SHE in 1M NaCl, which is 120 mV and 170 mV lower than that of 2,6-O-DPSAQ and 2,6-DPSAQ in 1M NaCl, respectively. The low redox potential of 2,6-N-TSAQ is attributed to the strong electron donating effect of N-alkyl group. It contributes to form a high working voltage and high power density flow battery. […] The ammonium cation, however, sacrifices the redox potential of 2,6-N-TSAQ as the local pH is always lower than the pKa2 of 9,10-dihydroxyanthracene, which is also observed in the reported 9,10-anthraquinone-2,7-disulfonic diammonium salt.

[4] = Long-term cycling of 0.1 M 2,6-N-TSAQ/ferrocyanide flow cell
Protocol: Flow battery experiments were performed with cell and hardware from Fuel Cell Tech. (Albuquerque, NM). Pyrosealed POCO graphite flow plates with serpentine flow designs were used for both electrodes. Each electrode comprised a single 5 cm^2 geometric surface area sheet of AvCarb carbon electrode. For 2,6-N-TSAQ/ferrocyanide full cell tests, a Nafion™ 212 membrane was used to serve as the ion-selective membrane. The Nafion membrane was soaked in the supporting electrolyte (sodium hydroxide or sodium chloride) for at least 24 hours before use. Viton sheets were used to cover the outer portion space between the electrodes. Torque used for cell assembly was 60 lb-in (6.78 Nm) on each of eight 1/4-28 bolts. The electrolytes were fed into the cell through fluorinated ethylene propylene (FEP) tubing at a rate of 60 mL/min, controlled by Cole-Parmer 6 Masterflex L/S peristaltic pumps. The cell was run inside a glove box (1 ppm O2). Cell polarization measurements and charge-discharge cycling were conducted using a Biologic BCS-815 battery cycler. […] The polarization curves were obtained by charging to a desired state of charge first and then polarizing via linear sweep voltammetry at a rate of 100 mV s^−1.
Long-term cycling testing of 0.1 M 2,6-N-TSAQ/ferrocyanide was performed with the same cell. The cell was cycled at 40 mA cm^2 with potential holds at 1.4 V for charging and 0.6 V for discharging until the current density dropped to 2 mA cm^−2. The initial discharge capacity was 4.764 Ah L^−1, corresponding to a capacity utilization of 88.9% of the theoretical value. However, the OCV at different SOC values in FIG. 8 (a) and the typical voltage profile in FIG. 9 (c) indicates it accesses the complete capacity of 2,6-N-TSAQ under such conditions. The differences between the actual capacity and the theoretical value could come from non-redox active impurities such as water or salts in the sample. […] The average coulombic efficiency was determined to be above 99.9%. […]

[5] = water, read-out: water solubility

solubility [1, 5] [mM] | decomposition by 1H NMR, oxidized state ([2]; oxidized form) | decomposition by 1H NMR, reduced state ([2]; reduced form) | solubility ([1]; water, with ammonium ion exchange, read-out: solubility) [mM] | reduction potential ([3]; 1M NaCl (unbuffered)) [V vs. SHE] | reduction potential lower than that of 2,6-DPSAQ ([3]; difference versus 2,6-DPSAQ) [mV] | reduction potential lower than that of 2,6-O-DPSAQ ([3]; difference versus 2,6-O-DPSAQ) [mV] | capacity fade rate ([4]; neutral condition (1 M sodium chloride), 0.1 M, 2.84 days cycling) [%/day] | cycle-denominated capacity fade rate ([4]; pH 14, 0.1 M, full SOC range cycling) [%/cycle] | temporal capacity fade rate ([4]; pH 14, 0.1 M, full SOC range cycling, 9 days) [%/day] | solubility ([1]; 1 M lithium chloride, saline or isotonic, 1 M lithium chloride, read-out: solubility) [mM] | solubility ([1]; 1 M sodium chloride, saline or isotonic, 1 M sodium chloride, read-out: solubility) [mM] | solubility ([1]; deionized water, water, deionized water, read-out: solubility) [mM] | Structure (SMILES)
300 | – | – | – | – | – | – | – | – | – | – | – | – | O=C1c2ccc(CCCS(=O)(=O)[O-])cc2C(=O)c2ccc(CCCS(=O)(=O)[O-])cc21.[Na+].[Na+] [2,6-DPSAQ, sodium 3,3′-(9,10-anthraquinone-2,6-diyl)bis(propane-1-sulfonate)]
450 | no apparent decomposition | a large quantity of decomposition | 650 | −0.62 | 170 | 120 | 2.6 | 0.00024 | 0.025 | – | – | – | O=C1c2ccc(N(CCCS(=O)(=O)O)CCCS(=O)(=O)O)cc2C(=O)c2ccc(N(CCCS(=O)(=O)O)CCCS(=O)(=O)O)cc21 [2,6-N-TSAQ, sodium 3,3′,3″,3′″-((9,10-anthraquinone-2,6-diyl)bis(azanetriyl))tetrakis(propane-1-sulfonate)]
– | – | – | – | – | – | – | – | – | – | 10 | < 5 | 10 | O=C1c2ccc(OCCCS(=O)(=O)[O-])cc2C(=O)c2ccc(OCCCS(=O)(=O)[O-])cc21.[Na+].[Na+] [2,6-O-DPSAQ, sodium 3,3′-((9,10-anthraquinone-2,6-diyl)bis(oxy))bis(propane-1-sulfonate)]
